From the supplement of paper PMC10307832

Tests used:
Assay in all cases: relative viability (nuclei count vs DMSO), 5 days (fraction); higher = more cells survive
Adavosertib + Pictilisib = compound: C=CCn1c(=O)c2cnc(Nc3ccc(N4CCN(C)CC4)cc3)nc2n1-c1cccc(C(C)(C)O)n1 [Adavosertib] + CS(=O)(=O)N1CCN(Cc2cc3nc(-c4cccc5[nH]ncc45)nc(N4CCOCC4)c3s2)CC1 [Pictilisib] (partner 1 µM)
Outline: (§1)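 A single step with final 0.05% Triton X-100, 1% formaldehyde and 1 ug/ml Hoechst fixed the cells and stained nuclei 5 days after treatment. Lung cancer cell lines in 1536-well plates had been treated by pin tool the day after seeding with one drug alone or a fixed anchor-drug dose plus five library-drug doses (not always all listed) in √10 steps, and nuclei were counted on 4× images. Relative viability is the ratio of nuclei in treated wells to nuclei in vehicle wells, taken as the median of duplicate plates.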

Adavosertib + Decitabine = compound: C=CCn1c(=O)c2cnc(Nc3ccc(N4CCN(C)CC4)cc3)nc2n1-c1cccc(C(C)(C)O)n1 [Adavosertib] + Nc1ncn([C@H]2C[C@H](O)[C@@H](CO)O2)c(=O)n1 [Decitabine] (partner 2 µM)
Outline: as §1

Nelarabine + Trametinib = compound: COc1nc(N)nc2c1ncn2[C@@H]1O[C@H](CO)[C@@H](O)[C@@H]1O [Nelarabine] + CC(=O)Nc1cccc(-n2c(=O)n(C3CC3)c(=O)c3c(Nc4ccc(I)cc4F)n(C)c(=O)c(C)c32)c1 [Trametinib] (partner 0.02 µM)
Outline: as §1

Nelarabine + AZD7762 = compound: COc1nc(N)nc2c1ncn2[C@@H]1O[C@H](CO)[C@@H](O)[C@@H]1O [Nelarabine] + NC(=O)Nc1cc(-c2cccc(F)c2)sc1C(=O)N[C@H]1CCCNC1 [AZD7762] (partner 0.2 µM)
Outline: as §1

Row | Cell Line | relative viability (Adavosertib + Pictilisib; first compound 0.01 µM) | relative viability (Adavosertib + Pictilisib; first compound 0.03162 µM) | relative viability (Adavosertib + Pictilisib; first compound 0.1 µM) | relative viability (Adavosertib + Pictilisib; first compound 0.3162 µM) | relative viability (Adavosertib + Decitabine; first compound 0.01 µM) | relative viability (Adavosertib + Decitabine; first compound 0.03162 µM) | relative viability (Adavosertib + Decitabine; first compound 0.1 µM) | relative viability (Adavosertib + Decitabine; first compound 0.3162 µM) | relative viability (Nelarabine + Trametinib; first compound 0.01 µM) | relative viability (Nelarabine + Trametinib; first compound 0.03162 µM) | relative viability (Nelarabine + Trametinib; first compound 0.1 µM) | relative viability (Nelarabine + Trametinib; first compound 0.3162 µM) | relative viability (Nelarabine + Trametinib; first compound 1 µM) | relative viability (Nelarabine + AZD7762; first compound 0.01 µM) | relative viability (Nelarabine + AZD7762; first compound 0.03162 µM) | relative viability (Nelarabine + AZD7762; first compound 0.1 µM) | relative viability (Nelarabine + AZD7762; first compound 0.3162 µM) | relative viability (Nelarabine + AZD7762; first compound 1 µM)
1 | NCI-H596 | 0.338 | 0.379 | 0.419 | 0.348 | 1.1 | 1.02 | 1.02 | 0.866 | 0.912 | 0.861 | 0.783 | 0.907 | 0.834 | 1.2 | 1.01 | 1.05 | 1.22 | 1.23
2 | PC-3 [JPC-3] | 0.719 | 0.775 | 0.725 | 0.865 |  | 0.906 | 0.926 | 0.78 | 0.753 | 0.808 | 0.683 | 0.672 | 0.775 | 0.9 | 0.764 | 0.761 | 0.957 | 0.792
3 | ChaGo-K-1 | 0.579 | 0.678 | 0.663 | 0.631 | 0.554 | 0.518 | 0.469 | 0.534 | 1 | 0.748 | 0.935 | 0.845 | 0.899 | 1 | 0.715 | 0.871 | 0.985 | 0.821
4 | RERF-LC-KJ | 0.568 | 0.636 | 0.519 | 0.358 | 0.669 | 0.718 | 0.775 | 0.714 | 1.03 | 1 | 0.934 | 0.986 | 0.862 | 0.993 | 1.11 | 1.02 | 1.15 | 1.08
5 | HCC-366 | 0.155 | 0.143 | 0.217 | 0.172 | 0.369 | 0.35 | 0.377 | 0.277 | 0.503 | 0.37 | 0.279 | 0.466 | 0.327 | 0.371 | 0.217 | 0.228 | 0.411 | 0.287
6 | NCI-H460 | 0.315 | 0.355 | 0.289 | 0.417 | 0.569 | 0.449 | 0.512 | 0.393 | 0.124 | 0.213 | 0.0809 | 0.259 | 0.164 | 0.79 | 0.626 | 0.616 | 0.558 | 0.323
7 | NCI-H1915 | 0.97 | 1 | 1.05 | 0.985 | 0.262 | 0.251 | 0.272 | 0.282 | 0.328 | 0.318 | 0.284 | 0.299 | 0.305 | 0.747 | 0.728 | 0.687 | 0.704 | 0.733
8 | NCI-H441 | 0.561 | 0.497 | 0.378 | 0.33 | 0.29 | 0.266 | 0.264 | 0.289 | 0.432 | 0.482 | 0.469 | 0.446 | 0.466 | 1.33 | 1.2 | 1.43 | 1.14 | 1.23
9 | LCLC-103H | 0.544 | 0.517 | 0.561 | 0.516 | 0.71 | 0.722 | 0.73 | 0.721 | 0.72 | 0.68 | 0.751 | 0.758 | 0.69 | 0.829 | 0.75 | 0.71 | 0.855 | 0.838
10 | HARA | 0.409 | 0.461 | 0.374 | 0.269 | 0.486 | 0.554 | 0.473 | 0.423 | 0.412 | 0.703 | 0.676 | 0.754 | 0.718 | 0.426 | 0.284 | 0.307 | 0.441 | 0.373
11 | NCI-H1755 | 0.433 | 0.451 | 0.4 | 0.326 | 0.717 | 0.689 | 0.775 | 0.725 | 0.852 | 0.777 | 0.753 | 0.692 | 0.836 | 0.473 | 0.455 | 0.425 | 0.516 | 0.474
12 | LXF-289 | 0.786 | 0.746 | 0.782 | 0.788 | 0.362 | 0.411 | 0.399 | 0.358 | 0.714 | 0.74 | 0.673 | 0.667 | 0.73 | 1.22 | 1.14 | 1.02 | 1.17 | 1
13 | HCC-44 | 0.518 | 0.647 | 0.526 | 0.62 | 0.935 | 0.935 | 0.975 | 1 | 1.14 | 1.05 | 1.01 | 1.03 | 0.983 | 1.01 | 0.951 | 1.05 | 0.999 | 0.955
14 | HOP-62 | 0.771 | 0.891 | 0.762 | 0.961 | 0.27 | 0.239 | 0.229 | 0.223 | 0.47 | 0.516 | 0.369 | 0.36 | 0.408 | 0.684 | 0.396 | 0.602 | 0.798 | 0.48
15 | NCI-H2126 | 0.531 | 0.526 | 0.506 | 0.521 | 0.518 | 0.596 | 0.512 | 0.568 | 0.666 | 0.612 | 0.599 | 0.52 | 0.538 | 1.02 | 1.07 | 1.05 | 1.04 | 0.997
16 | NCI-H1355 | 0.476 | 0.404 | 0.45 | 0.378 | 0.347 | 0.351 | 0.396 | 0.368 | 0.451 | 0.343 | 0.43 | 0.346 | 0.477 | 0.935 | 0.608 | 0.657 | 0.804 | 0.822
17 | NCI-H1944 | 0.387 | 0.333 | 0.333 | 0.326 | 0.415 | 0.439 | 0.448 | 0.369 | 0.448 | 0.443 | 0.401 | 0.388 | 0.376 | 0.534 | 0.4 | 0.421 | 0.44 | 0.485
